Measured values reported in publication PMC12866179, “Oxidized MIF is an Alzheimer’s disease drug target relaying external risk factors to tau pathology” (Cell Reports Medicine, 2025).

Columns and labels:
GSK3β = GSK3β phosphorylation (Ser9) in SH-SY5Y-tau-P301S cells, immunoblot; type: cell-based, human; settings: dose-dependent and MIF-dependent
Method: After the protein concentration of cell lysates and homogenates had been determined using the DC Protein Assay Kit (Bio-Rad), 20 μg of each sample were dissolved in NuPAGE LDS Sample buffer (including 2% β-mercaptoethanol), boiled at 100°C for 5 min and then separated on NuPAGE Novex 4–12% Bis-Tris midi gels (Invitrogen) using NuPAGE MES SDS Running buffer (Invitrogen). Proteins were then transferred to a 0.2 μm nitrocellulose membrane (Amersham) in 24 mM Tris/192 mM glycine/20% MeOH at 400 mA for 2h using a tank blot system (Bio-Rad). In order to detect any blotting artifacts, the proteins on the membranes were visualized with Ponceau S (Sigma). The membranes were destained with PBS and then blocked with PBS/5% nonfat milk (Oxoid) for 1h at RT. Incubations with primary antibodies (diluted 1:1,000) in PBS-T were carried out overnight at 4°C. Then the membranes were washed three times with PBS-T for 10 min and afterward incubated with fluorescent secondary antibodies (IR Dye 680 or 800: Li-COR Biosciences.) diluted 1:20,000 in PBS-T for 1h at RT. Following three washing steps with PBS-T for 10 min each, the membranes were scanned using an LI-COR Odyssey CLX. Signal intensities were calculated using the Image Studio Version 2.1 software (LI-COR Biosciences). Blots were reused for staining with additional primary antibodies following the same procedure.

wt-MIF and MIF-C80W = test: SEC-HPLC-MALS of MIF with or without compound; parameters: species or system human; settings: 100 μM MIF, 100 μM PAV-174
Method: The samples for SEC-HPLC-MALS were 100 μM of MIF (WT or mutant C80W) in 20 mM phosphate buffer, with or without compound PAV-174 (100 μM).
The HPLC-MALS was performed at 0.5 mL/min and 25°C with an Agilent 1200 series HPLC system and a size exclusion column TSKgel G2000SWXL from Tosoh bioscience. The detection was performed recording the UV absorbance at 280 nm with the HPLC detector and the light scattering with a miniDawn Treos spectrometer from Wyatt. The molecular weight of the detected species is calculated using the extinction coefficients at 280 nm (12950 M^−1 cm^−1 for WT and 18450 M^−1 cm^−1 for C80W), absorbance at 280 nm and the Rayleigh ratio using the built-in function in Astra software.

[1] = type: in vivo; settings: compared with PAV-174
Method: (§1) Figure S5. PAV-17 4 decreases ta u phosphorylation and aggr e gat ion in vi v o. Rel a ted to […]
(§2) (A) MTD (Maximum Tol erated Dose) assessment of PAV com pounds in BALB/c mice. BALB/c mice we re dosed through int ra pe rit o ne al (IP ) ro ute at di ff e ren t doses as pe r bo dy we igh t of an ima ls an d mice we re obser ved at di ff e ren t time interval for toxic signs till 48 h, PD (Post dose) . MTD at wa s declared at NOAEL (No-obser ved-adver se-effect level) conc. of PAV […]
(§3) (B) PAV-61 7 dose- an d MIF-de pe nd en t ly reduces tau phosphorylati on (A T8) . SH-SY5Y-P301S-control or -MIF-knockdown cel ls we re treated with the indicated concentrations of PAV- […]
(§4) cel ls. The di ag ram s show the signals of AT8 normalized to total tau (HT7 ) from six (n =6) in de pe nd en t exper iments. One-wa y ANOVA (Sidak´s post-hoc)
(§5) (C) Pharmacokinetic assessment of PAV-61 7 in Sprague Da wley ra ts (S D). Ma le SD ra ts (n=4) we re dosed via three ro utes na me ly intravenous (IV )- 1 mg/kg, (IP )- 5 mg/kg an d per ora l (P O)- 5 mg/kg. Plasma concentration wa s anal yzed at di ff e ren t time intervals. Pharmacokinetic pa ra met e rs we re de t erm ine d usi ng Win No nlin . Cma x (p ea k pl asma concentration) achieved through IV wa s 12 8 ng / mL, IP wa s 36 2. 6 ng / mL an d PO wa s 15 1. 1 ng / mL at Tmax (time of pe ak concentration obser ved) 1 h, 0. 5 h an d 4 h respectively. […]

[2] = parameters: species or system SD rats; settings: rat, in vivo, ip, 5 mg/kg
Method: as §1, §2, §3, §4, §5

SMILES	phosphorylation of GSK3β at Ser9 (GSK3β)	effect on monomer-trimer equilibrium / oligomerization of MIF (wt-MIF and MIF-C80W)	toxicity in mice [1]	tissue penetration [2]
CCc1cc(N2CCCC2)cc2[s+]c3cc(N4CCCC4)cc(C)c3nc12.[I-] [PAV-174, 3,7-Di(pyrrolidine-1-yl) 1-ethyl-9-methyl-phenothiazin-5-ium iodide]	increased	does not perturb the monomer-trimer equilibrium	–	–
[I-].c1cc2nc3ccc(N4CCCC4)cc3[s+]c2cc1N1CCCC1 [PAV-617, 3,7-Di(pyrrolidine-1-yl)phenothiazine-5-ium iodide]	–	–	less toxic in mice	good tissue penetration, including the brain
